Experiment [1] deals with T1, ABHD12 (Mus musculus, UniProt Q99LR1).
T1 construct: from tissue; host or cells: brain membrane proteome
T1 sequence (Q99LR1 1-398): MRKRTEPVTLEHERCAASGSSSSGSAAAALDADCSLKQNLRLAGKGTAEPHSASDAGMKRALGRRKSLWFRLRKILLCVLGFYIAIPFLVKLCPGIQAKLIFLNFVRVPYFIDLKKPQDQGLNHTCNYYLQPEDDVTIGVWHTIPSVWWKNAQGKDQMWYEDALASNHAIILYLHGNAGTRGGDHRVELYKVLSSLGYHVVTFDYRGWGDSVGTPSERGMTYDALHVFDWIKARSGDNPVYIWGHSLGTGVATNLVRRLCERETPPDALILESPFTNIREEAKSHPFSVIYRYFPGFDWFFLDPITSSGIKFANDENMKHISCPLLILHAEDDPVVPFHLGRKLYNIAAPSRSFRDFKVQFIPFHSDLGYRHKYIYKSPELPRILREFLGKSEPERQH
Put plainly: Gel-based competitive ABPP, JJH350 probe vs brain membrane proteome. The experiment is classed as biochemical. The conditions noted are these: for IC50: read-out: IC50 (ABPP gel_JJH350 probe vs brain mem); for inhibition at 10 µM: 10 μM compound, read-out: % Inhibition @ 10 μM (ABPP gel_JJH350 probe vs brain mem). An outline of the steps:
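Mouse membrane proteome (1 mg/mL) labeled 45 min at 37 °C with alkyne probe JJH350 (2 μM final) or FP-Rh (1 μM final). JJH350 targets were visualized after CuAAC with rhodamine-azide (1 h, room temperature), SDS-PAGE (10%) and in-gel fluorescence scanning, with band intensities quantified.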

Experiment [2] has as its target T2, ABHD12 (Homo sapiens, UniProt Q8N2K0).
T2 construct: expressed in transfected cells; host or cells: HEK293T
T2 sequence (Q8N2K0 1-398): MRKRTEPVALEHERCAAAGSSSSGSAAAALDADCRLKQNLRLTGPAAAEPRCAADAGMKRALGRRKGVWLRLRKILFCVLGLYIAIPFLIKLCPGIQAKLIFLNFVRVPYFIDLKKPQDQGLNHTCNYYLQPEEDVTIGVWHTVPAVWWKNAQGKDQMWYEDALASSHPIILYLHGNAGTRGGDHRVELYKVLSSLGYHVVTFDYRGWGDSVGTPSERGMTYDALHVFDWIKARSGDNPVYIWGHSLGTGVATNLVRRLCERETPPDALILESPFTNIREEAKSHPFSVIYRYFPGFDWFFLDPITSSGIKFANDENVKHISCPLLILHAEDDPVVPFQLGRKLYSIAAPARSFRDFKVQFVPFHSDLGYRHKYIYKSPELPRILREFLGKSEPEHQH
Kind of experiment: Lyso-PS hydrolysis assay (substrate-based), ABHD12-overexpressing HEK293T membrane lysate. The experiment is classed as biochemical. The conditions noted are these: 17:1 lyso-PS substrate; ABHD12-overexpressed HEK lysate; read-out: IC50 (Substrate-based assay_ABHD12-overexpressed HEK lysate). As for the experimental part: Lyso-PS Hydrolysis Assay:
The lyso-PS lipase activity of ABHD12 was determined as previously described (Blankman, J. L., Long, J. Z., Trauger, S. A., Siuzdak, G. & Cravatt, B. F. ABHD12 controls brain lysophosphatidylserine pathways that are deregulated in a murine model of the neurodegenerative disease PHARC. Proc. Natl. Acad. Sci. U. S. A. 110, 1500-1505, doi:10.1073/pnas.1217121110 (2013)) with some minor modifications. The proteome concentrations were adjusted to 0.25 mg/mL (ABHD12-overexpressing HEK293T membrane) or 0.5 mg/mL (mouse brain membrane) in Dulbecco's phosphate-buffered saline (DPBS) (80 μL/reaction). 20 μL of 500 μM 17:1 lyso-PS in DPBS was added to each reaction (100 μM final concentration) and incubated at 37° C. After 30 min, the reaction was quenched with 400 μL of 2:1 CHCl3/MeOH (v/v) with 1 nmol 15:0 FFA as an internal standard. The mixture was vortexed and centrifuged at 1,400× g to separate the aqueous and organic phase. The organic phase was analyzed by LC-MS (1200 LC/MSD, Agilent Technologies). The separation of the analyte was achieved using a 50 mm×4.6 mm 5 μm Gemini C18 column (Phenomenex) coupled to a guard column (Gemini: C18: 4×3 mm). The LC solvents were as follows: buffer A, […] (95:5, v/v) with 0.1% NH4OH (v/v); and buffer B, iPrOH:MeOH:H2O (60:3 5:5, v/v/v) with 0.1% NH4OH (v/v). The LC method consisted of 0.1 mL/min 20% buffer B for 1.0 min, 0.4 ml/min isocratic mode of 100% buffer B over 7 min and equilibration with 0.5 mL/min 100% buffer A for 3 min. The MS analyses were performed using an electrospray ionization source (ESI) in negative ion mode to measure product formation. MS data were acquired in selected ion monitoring mode at m/z 267.20 for 17:1 FFA and m/z 241.20 for 15:0 FFA.

On to `FC(F)(F)Oc1ccc(Oc2ccnc(N3CCC(NC(=S)Nc4cccnc4)CC3)c2Cl)c(Cl)c1` [Example 4, 1-(1-(3-Chloro-4-(2-chloro-4-(trifluoromethoxy)phenoxy)pyridin-2-yl)piperidin-4-yl)-3-(pyridin-3-yl)thiourea], for which the IC50 in experiment [1] and in experiment [2] was not above 100 nM throughout.

In the case of `FC(F)(F)Oc1cc(Oc2ccnc(N3CCC(NC(=S)Nc4cccnc4)CC3)c2)ccc1Cl` [Example 57, 1-(1-(4-(4-Chloro-3-(trifluoromethoxy)phenoxy)pyridin-2-yl)piperidin-4-yl)-3-(pyridin-3-yl)thiourea], in experiment [1], the inhibition at 10 µM is not below 75% and the IC50 lay in the range of 100 to 1000 nM. The IC50 in experiment [2] was 100 to 1000 nM.

For `FC(F)(F)Oc1ccc(Oc2ccnc(N3CCC(NC(=S)Nc4cccnc4)CC3)c2C(F)(F)F)cc1` [Example 59, 1-(Pyridin-3-yl)-3-(1-(4-(4-(trifluoromethoxy)phenoxy)-3-(trifluoromethyl)pyridin-2-yl)piperidin-4-yl)thiourea], in experiment [1], the inhibition at 10 µM was not below 75% and the IC50 is 1000 to 25000 nM. Further, the IC50 in experiment [2] lay within 1000 to 25000 nM.

Consider `FC(F)(F)c1cnc(N2CCC(NC(=S)Nc3cccnc3)CC2)c(Cl)c1` [Example 1, 1-(1-(3-Chloro-5-(trifluoromethyl)pyridin-2-yl)piperidin-4-yl)-3-(pyridin-3-yl)thiourea], for which, in experiment [1], the inhibition at 10 µM is not below 75% and the IC50 fell in the range of 1000 to 25000 nM. Besides, the IC50 in experiment [2] was 1000 to 25000 nM.

With `Fc1ccc(Oc2ccnc(N3CCC(NC(=S)Nc4cccnc4)CC3)c2)cc1` [Example 41, 1-(1-(4-(4-Fluorophenoxy)pyridin-2-yl)piperidin-4-yl)-3-(pyridin-3-yl)thiourea], in experiment [1], the inhibition at 10 µM is not below 75% and the IC50 is 1000 to 25000 nM. For the same compound, the IC50 in experiment [2] lay in the range of 1000 to 25000 nM.

In the case of `Cc1c(Oc2ccc(OC(F)(F)F)cc2)ccnc1N1CCC(NC(=S)Nc2cccnc2)CC1` [Example 72, 1-(1-(3-Methyl-4-(4-(trifluoromethoxy)phenoxy)pyridin-2-yl)piperidin-4-yl)-3-(pyridin-3-yl)thiourea], the IC50 in experiment [1] and in experiment [2] was not above 100 nM throughout.

For `FC(F)(F)c1ccc(N2CCC(NC(=S)Nc3cccnc3)CC2)nc1` [Example 14, 1-(Pyridin-3-yl)-3-(1-(5-(trifluoromethyl)pyridin-2-yl)piperidin-4-yl)thiourea], in experiment [1], the inhibition at 10 µM is not below 75% and the IC50 was in the range of 1000 to 25000 nM. In addition, the 50% inhibitory concentration (IC50) in experiment [2] lay within 1000 to 25000 nM.

With `COc1ccc(Oc2ccnc(N3CCC(NC(=S)Nc4cccnc4)CC3)c2)cc1` [Example 74, 1-(1-(4-(4-Methoxyphenoxy)pyridin-2-yl)piperidin-4-yl)-3-(pyridin-3-yl)thiourea], the IC50 in experiment [1] and in experiment [2] was 1000 to 25000 nM throughout.

Take `C#Cc1ccc(Oc2ccnc(N3CCC(NC(=S)Nc4cccnc4)CC3)c2Cl)c(Cl)c1` [Example 5, 1-(1-(3-Chloro-4-(2-chloro-4-ethynylphenoxy)pyridin-2-yl)piperidin-4-yl)-3-(pyridin-3-yl)thiourea]: the IC50 in experiment [2] was not above 100 nM.

For the compound `Fc1ccc(-c2ccnc(N3CCC(NC(=S)Nc4cccnc4)CC3)c2)cc1F` [Example 48, 1-(1-(4-(3,4-Difluorophenyl)pyridin-2-yl)piperidin-4-yl)-3-(pyridin-3-yl)thiourea], the inhibition at 10 µM in experiment [1] is not below 75%.

With `Fc1ccc(COc2ccnc(N3CCC(NC(=S)Nc4cccnc4)CC3)c2)cc1F` [Example 42, 1-(1-(4-((3,4-Difluorobenzyl)oxy)pyridin-2-yl)piperidin-4-yl)-3-(pyridin-3-yl)thiourea], in experiment [1], the inhibition at 10 µM was not below 75%.

In the case of `Fc1ccc(N2CCC(NC(=S)Nc3cccnc3)CC2)nc1` [Example 12, 1-(1-(5-Fluoropyridin-2-yl)piperidin-4-yl)-3-(pyridin-3-yl)thiourea], the inhibition at 10 µM in experiment [1] was not below 75%.

Consider `FC(F)(F)c1cnc(N2CCCC(NC(=S)Nc3cccnc3)CC2)c(Cl)c1` (centres unmarked) [Example 80, 1-(1-(3-Chloro-5-(trifluoromethyl)pyridin-2-yl)azepan-4-yl)-3-(pyridin-3-yl)thiourea], for which the inhibition at 10 µM in experiment [1] lay within 50 to 75%.

In general, IC50 refers to the concentration needed to halve the response being measured. In general, inhibition refers to the change of the read-out against control, counted positive when it falls.
